Key:
A375 malignant melanoma = experiment: Cell Proliferation Inhibition Assay (14C-thymidine incorporation), A375; assay type: cell-based; conditions: Homo sapiens, A-375; A375 cells
Method: (§1) The ability of a test compound to inhibit unregulated cell proliferation was determined by measuring incorporation of ^14C-labelled thymidine into newly synthesized DNA within cell lines derived from carcinomas originating from several tissues. Accordingly, the anti-proliferative effect of a compound on cells with a variety of phenotypes may be determined.
(§2) Carcinoma cell lines include those such as HeLa cervical adenocarcinoma (American Type Culture Collection (ATCC), Virginia, Cat. #CCL-2), A375 malignant melanoma (ATCC CRL-1619), SK-OV-3 ovarian adenocarcinoma (ATCC HTB-77), HCT-116 colon carcinoma (CCL-247), PC-3 prostate adenocarcinoma (ATCC CRL-1435), and MDA-MB-231 (Xenogen Corp.)
(§3) The carcinoma cells were trypsinized and counted. The cells (3000-8000 count) were added to each well of a 96-well CytoStar tissue culture treated scintillating microplate (Amersham #RPNQ0160) in complete medium (100 μL) and the plate was then incubated in complete medium for 24 hrs at 37° C. in an […] atmosphere containing 5% CO2. Test compound (1 μL) in 100% DMSO was added to the plate test-wells with DMSO only added to control-wells. The plate was incubated in complete medium for a second 24 hr period at 37° C. in an atmosphere containing 5% CO2.
(§4) An aliquot of a solution of methyl ^14C-thymidine (56 mC/mmol) (NEN #NEC568 or Amersham #CFA532) and complete medium (20 uL to provide 0.2 μCi/well) was then added to each well and the plate was incubated for a third 24 hr period at 37° C. in an atmosphere containing 5% CO2. The plate contents were then discarded, the plate was washed twice with PBS (200 μL) and then PBS (200 μL) was added to each well. The plate was sealed and the degree of methyl ^14C-thymidine incorporation was quantified on a Packard Top Count.

HCT-116 colon carcinoma = experiment: Cell Proliferation Inhibition Assay (14C-thymidine incorporation), HCT116; assay type: cell-based; conditions: Homo sapiens, HCT116 cells
Method: as §1, §2, §3, §4

EGFR = molecular target: T1, EGFR (Homo sapiens, UniProt P00533); experiment: EGFR Kinase Assay; assay type: biochemical; conditions: test concentration of 2 μM (compounds without an IC50); read-out: EGFR percent inhibition
T1 construct: The intracellular portion of EGFR started at nucleotide 2189 (corresponding to amino acid 667) and ended at the termination codon; made in house; host or cells: Sf9 insect cells (baculovirus)
T1 sequence (P00533 669-1210 limits assumed): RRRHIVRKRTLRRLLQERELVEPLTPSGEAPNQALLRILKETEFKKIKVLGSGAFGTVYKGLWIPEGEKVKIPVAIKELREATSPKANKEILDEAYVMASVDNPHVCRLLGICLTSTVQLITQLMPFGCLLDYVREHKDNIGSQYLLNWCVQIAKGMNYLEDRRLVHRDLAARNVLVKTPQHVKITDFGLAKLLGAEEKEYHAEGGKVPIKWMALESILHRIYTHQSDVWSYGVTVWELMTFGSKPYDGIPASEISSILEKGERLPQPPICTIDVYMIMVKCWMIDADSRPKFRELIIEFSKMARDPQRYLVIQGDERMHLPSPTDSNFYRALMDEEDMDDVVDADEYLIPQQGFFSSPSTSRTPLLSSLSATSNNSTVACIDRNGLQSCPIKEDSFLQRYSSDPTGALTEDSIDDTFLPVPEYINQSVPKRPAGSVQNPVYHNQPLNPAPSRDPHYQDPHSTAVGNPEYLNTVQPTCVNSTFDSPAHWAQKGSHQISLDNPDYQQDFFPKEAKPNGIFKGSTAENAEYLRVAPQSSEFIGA
From the text: The EGFR kinase used was a fusion of Glutathione-S-Transferase (GST) and a PCR amplified intracellular portion of EGFR (NM_005228). The intracellular portion of EGFR started at nucleotide 2189 (corresponding to amino acid 667) and ended at the termination codon. The portion was PCR amplified with primers that added the lambda attB sequences to each end, recombined into an entry vector, then into a GST destination vector (as described in Gateway Technologies Manual by Invitrogen Corporation, Carlsbad, Calif.).
The destination vector was recombined in the DH10BAC strain of bacteria to produce a bacmid. The bacmid was transfected into Sf 9 cells and the supernatant containing the baculovirus was collected. The GSTEGFR protein was purified using large cultures of Sf 9 cells infected with stock virus. After an appropriate period of time, the cells were collected and lysed. The GSTEGFR was then purified from the lysate on Glutathione-Sepharose columns (as described by Amersham Biosciences, Buckinghamshire, United Kingdom).
The EGFR substrate was prepared by biotinylating polyGluTyr (128 mg) (Sigma, St. Louis, Mo.) in a 1×PBS buffer incubated together with a 12-fold molar excess of Sulfo-NHS-LC-Biotin on ice for at least 2 hrs. The free biotin was separated from the biotinylated polyGluTyr on a gel filtration column.
A mixture of a 10× kinase buffer (500 mM Tris at pH 8.0, 100 mM Magnesium Chloride and 1 mM Sodium Vanadate), DTT (1 mM final from 500 mM stock), ATP (5 μM final from 10 mM stock), biotinylated polyGluTyr (10 μg/μL stock), γ-^33P ATP (10 μCi/μL stock) and water was added to each well (90 μL/well) of a Streptavidin Flashplate (Perkin Elmer, Wellesley, M A).
Test compound in 100% DMSO (2 μL) was added to the appropriate wells. Diluted GSTEGFR (1:300 dilution in 50 mM Tris at pH 8.0 and 0.1% bovine serum albumin) (10 μL) was added to the wells to initiate the reactions.
The plates were incubated at 30° C. for 1 hr with shaking. The reacted contents were removed and the plates were sequentially washed three times with a 1×PBS stop buffer (300 μL without Magnesium and Calcium) and 100 mM EDTA. After the final wash, the same stop buffer (200 μL) was added to the wells. The plates were then sealed and read on the TopCount scintillation counter.
Test compounds were assayed in triplicate at 16 concentrations at half-log dilutions starting at 200 uM. A maximum and minimum signal for the assay was determined on each plate. The percent inhibition of a test compound was calculated according to the formula
For a series of test concentrations, the IC50 was derived by graphing percent inhibition against the log of the concentrations tested for a given compound. For those compounds without an IC50, the percent inhibition results are shown at a test concentration of 2 μM.

HER-2 = molecular target: T2, HER-2 (Homo sapiens, UniProt P04626); experiment: HER-2 Kinase Assay; assay type: biochemical; conditions: GST-HER2, 1 μM ATP
T2 construct: the nucleotides encoding amino acids 679 to 1255 of HER-2; HIS6-Thrombin (His6 tag and thrombin site) (N); purchased Proqinase (Freiburg, Germany)
T2 sequence (P04626 679-1255): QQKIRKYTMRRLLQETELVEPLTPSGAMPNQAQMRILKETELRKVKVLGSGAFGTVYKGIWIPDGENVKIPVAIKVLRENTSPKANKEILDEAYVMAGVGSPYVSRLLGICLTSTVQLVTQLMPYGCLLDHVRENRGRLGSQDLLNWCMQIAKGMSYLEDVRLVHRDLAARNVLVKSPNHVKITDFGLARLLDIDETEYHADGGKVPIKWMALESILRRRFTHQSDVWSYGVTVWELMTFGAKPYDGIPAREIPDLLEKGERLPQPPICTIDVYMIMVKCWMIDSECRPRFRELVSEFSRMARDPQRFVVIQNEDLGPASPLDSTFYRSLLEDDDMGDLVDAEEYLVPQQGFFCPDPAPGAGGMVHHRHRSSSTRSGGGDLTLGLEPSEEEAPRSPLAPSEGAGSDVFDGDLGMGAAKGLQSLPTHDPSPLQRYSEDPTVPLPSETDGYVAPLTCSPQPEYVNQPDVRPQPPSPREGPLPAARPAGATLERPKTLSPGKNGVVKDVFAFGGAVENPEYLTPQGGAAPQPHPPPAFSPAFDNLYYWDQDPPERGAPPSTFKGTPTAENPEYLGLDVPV
Method: HER-2 kinase was purified at Proqinase (Freiburg, Germany) from a construct that consisted of a fusion of GST (Glutathione-S-Transferase), HIS6-Thrombin and the nucleotides encoding amino acids 679 to 1255 of HER-2.
A mixture of a 10× kinase reaction buffer (600 mM Hepes at pH 7.5, 30 mM Magnesium Chloride, 0.03 mM Sodium Vanadate and 500 μg/mL PEG 20,000), DTT (1.2 mM final from a 10 mM stock), ATP (1 μM from a 10 mM stock), biotinylated polyGluTyr (1.5 ng/μL final from stock of 1 μg/μL prepared by Upstate Biotechnologies, Lake Placid, N.Y.), Manganese Chloride (3 mM final from a 1 M stock), γ-^33P-ATP (10 μCi/μL stock) and water (70 μL/well) was added to each well of a Streptavidin Flashplate (Cat. # SMP103, NEN, Boston, Mass.).
Test compound stock (1 μL) was added to the appropriate wells. Diluted GSTHER2 kinase (6.7 ng/μL diluted into 50 mM Tris-HCl at pH 8.0 and 0.1% bovine serum albumin) (30 μL) was added (total volume of 200 ng/well) to initiate the reactions.
The reaction plates were incubated at 30° C. for 1 hr. The reaction was terminated by aspirating the reaction mixture from the plate wells and washing the wells three times with a 1×PBS stop buffer (300 μL) and 100 mM EDTA. After the final wash, the same stop buffer (200 μL) was again added to the wells. The plates were then sealed and read on the TopCount scintillation counter. The IC50 was derived according to the procedure described in Example 1.

SMILES | IC50 (A375 malignant melanoma) | IC50 (HCT-116 colon carcinoma) | inhibition at 2 µM (EGFR) | IC50 (HER-2)
Cc1cc2c(F)c(Oc3ncnc4sc(C(=O)NCCN5CCOCC5)c(C)c34)ccc2[nH]1 [Cpd 19, 4-(4-fluoro-2-methyl-1H-indol-5-yloxy)-5-methyl-thieno[2,3-d]pyrimidine-6-carboxylic acid (2-morpholin-4-yl-ethyl)-amide] | > 10 µM | > 10 µM | 10% | > 100 µM
Cc1cc2c(F)c(Oc3ncnc4sc(C(=O)Nc5ccc(CN6CCOCC6)cc5)c(C)c34)ccc2[nH]1 [Cpd 20, 4-(4-fluoro-2-methyl-1H-indol-5-yloxy)-5-methyl-thieno[2,3-d]pyrimidine-6-carboxylic acid (4-morpholin-4-ylmethyl-phenyl)-amide] | > 10 µM | > 10 µM | – | > 100 µM
Cc1cc2c(F)c(Oc3ncnc4sc(C(=O)NCCN5CCCCC5)c(C)c34)ccc2[nH]1 [Cpd 21, 4-(4-fluoro-2-methyl-1H-indol-5-yloxy)-5-methyl-thieno[2,3-d]pyrimidine-6-carboxylic acid (2-piperidin-1-yl-ethyl)-amide] | 1.5 µM | 9.4 µM | – | > 100 µM

The next lines start with the values.

IC50 (A375 malignant melanoma) | IC50 (HCT-116 colon carcinoma) | inhibition at 2 µM (EGFR) | IC50 (HER-2) | SMILES
2.2 µM | 22.3 µM | – | > 100 µM | Cc1cc2c(F)c(Oc3ncnc4sc(C(=O)NCCN5CCCC5)c(C)c34)ccc2[nH]1 [Cpd 22, 4-(4-fluoro-2-methyl-1H-indol-5-yloxy)-5-methyl-thieno[2,3-d]pyrimidine-6-carboxylic acid (2-pyrrolidin-1-yl-ethyl)-amide]
2.9 µM | 7.1 µM | – | > 100 µM | Cc1c(C(=O)Nc2ccc(CN3CCOCC3)cc2)sc2ncnc(Nc3ccc(Oc4ccccc4)cc3)c12 [Cpd 23, 5-methyl-4-(4-phenoxy-phenylamino)-thieno[2,3-d]pyrimidine-6-carboxylic acid (4-morpholin-4-ylmethyl-phenyl)-amide]
> 10 µM | > 10 µM | – | > 10 µM | Cc1c(C(=O)NCCN2CCOCC2)sc2ncnc(Nc3ccc(Oc4ccccc4)cc3)c12 [Cpd 24]
> 10 µM | > 10 µM | – | > 10 µM | COCCNC(=O)c1sc2ncnc(Oc3ccc4[nH]c(C)cc4c3F)c2c1C [Cpd 27, 4-(4-fluoro-2-methyl-1H-indol-5-yloxy)-5-methyl-thieno[2,3-d]pyrimidine-6-carboxylic acid (2-methoxy-ethyl)-amide]

— US20080108611A1, “SUBSTITUTED THIENOPYRIMIDINE KINASE INHIBITORS” (priority 2006, published 2008)
